Laboratory results as given in PMC8533333, “Melatonin Analogues Potently Inhibit MAO-B and Protect PC12 Cells against Oxidative Stress” (Antioxidants, 2021).

Columns and labels:
[1] = system: Nrf2; assay: Nuclear translocation of Nrf2 in PC12 cells (Western blotting); type: cell-based, rat; conditions: for time of peak Nrf2 protein expression: 10 μM; for nuclear translocation of Nrf2: PC12 nuclear fraction, Western blotting
Description: (§1) PC12 cells were seeded on 35 mm dishes at a density of 2 × 10^6 cells/dish and kept at 37 °C in humidified incubator for at least 24 h. Cells were treated with a series of concentrations of the tested compounds for 12 h or with the tested compounds (10 μM) for the indicated time points. Control cells were treated with serum-free media containing 0.3% DMSO instead. Total cell lysates were prepared according to the methods described previously, and stored at −20 °C until used. To evaluate the effects of the tested compounds on the nuclear translocation of Nrf2, nuclear fraction was separated from cytosolic fraction using NE-PER Nuclear and Cytoplasmic Extraction Reagents (Rockford, IL, USA), following the manufacturer’s directions. The protein concentrations were assessed using a BioRad DC protein assay kit (BioRad, Hercules, CA, USA). Equal amounts of proteins (20 µg) were resolved on 12% or 8% gels via sodium dodecyl sulfate-polyacrylamide gel electrophoresis and electrophoretically transferred onto nitrocellulose membrane (Whatman, Clifton, NJ, USA). Subsequently, immunoblotting was performed using anti-HO-1 or anti-Nrf2 antibodies, respectively, according to the procedures reported previously. Beta-actin, a highly conserved cytoskeletal protein, was used as a loading control of cell lysates to normalize the level of HO-1, while nuclear protein lamin B was used as a nuclear loading control to normalize the level of Nrf2 in the nuclear fraction. Finally, the immunoreactive bands corresponding to HO-1 or Nrf2 proteins were visualized using Clarity^TM Western ECL substrate (Bio-Rad, Hercules, CA, USA) using the BioRad ChemiDoc XRS imaging system (Bio-Rad, Hercules, CA, USA).
Nrf2 is a transcription factor involved in the expression of antioxidant defense enzymes in response to oxidative stress. Upon nuclear translocation, Nrf2 binds to antioxidant response elements (AREs), leading to the transcription of ARE genes such as HO-1 [111]. […] Nrf2 protein expression peaked after 6 h of treatment with each compound at 10 μM (Figure 15A,B). […] The nuclear translocation of Nrf2 was increased by 3n and 3r in concentration-dependent manners (Figure 16C,D).

[2] = system: PC12 cells; assay: Cytotoxicity in PC12 cells (MTT assay); type: cell-based, rat; conditions: 10 and 30 μM, 24 h
Description: (§2) Control cells were incubated in an equivalent volume of DMSO to a final concentration of 0.3%. Neuroprotective effects of the tested compounds on the toxicity induced by 6-OHDA or rotenone in PC12 cells were evaluated as described previously with slight modifications. In brief, cells were pre-treated with the tested compounds or rasagiline at the indicated concentrations for 4 h. Next, they were exposed to 6-OHDA (50 μM) or rotenone (1 μM) for 24 h. In another set of experiments, the influence of HO-1 inhibitor, ZnPP, on the neuroprotective effects of the tested compounds against 6-OHDA-induced oxidative damage was investigated as previously reported. Briefly, the cells were pre-treated with the tested compounds for 4 h and then incubated with 0.2 µM of ZnPP for 30 min. Subsequently, 6-OHDA was added at a final concentration of 50 µM and incubated for 24 h.
After the desired treatment, cell viability was determined by MTT assay as described previously. Briefly, MTT was added to the cells at the final concentration of 0.5 mg/mL, which was followed by incubation for 3 h at 37 °C. […] The absorbance of the dissolved solution was measured at 550 nm using a microplate reader (SpectraMax M2^e, Molecular Devices, Sunnyvale, CA, USA). The cell viability was presented as the percentage of the absorbance measured in the vehicle-treated control cells.
Cell viabilities were measured by MTT assay.

[3] = system: HO-1; assay: HO-1 protein expression in PC12 cells (Western blotting); type: cell-based, rat; conditions: for HO-1 protein expression over time: 10 μM, 1 to 12 h, significant at 6–12 h; for increase in HO-1 expression: 30 μM, 12 h
Description: as §1

[4] = system: PC12 cells; assay: Neuroprotection against rotenone-induced toxicity in PC12 cells (MTT); conditions: Rattus norvegicus, PC-12, 24 h, read-out: IC50 of protection from rotenone-induced toxicity
Description: as §2
After the desired treatment, cell viability was determined by MTT assay as described previously. Briefly, MTT was added to the cells at the final concentration of 0.5 mg/mL, which was followed by incubation for 3 h at 37 °C. The supernatants were carefully removed, and then, 300 μL of DMSO was added to each well to dissolve formazan precipitate. The absorbance of the dissolved solution was measured at 550 nm using a microplate reader (SpectraMax M2^e, Molecular Devices, Sunnyvale, CA, USA). The cell viability was presented as the percentage of the absorbance measured in the vehicle-treated control cells.

| SMILES | time of peak Nrf2 protein expression [1] | nuclear translocation of Nrf2 [1] | cytotoxic effects on PC12 cells [2] | HO-1 protein expression over time [3] | increase in HO-1 expression [3] | IC50 [4] |
| --- | --- | --- | --- | --- | --- | --- |
| O=C(Nc1ccc2[nH]ccc2c1)c1cccc(Br)c1 [3r, 3-Bromo-N-(1H-indol-5-yl)benzamide] | 6 h | increased | did not show any significant cytotoxic effects | time-dependent increases | 1.7 fold | 0.87 µM |
| O=C(Nc1ccc2[nH]ccc2c1)c1cccc(Cl)c1 [3n, 3-Chloro-N-(1H-indol-5-yl)benzamide] | 6 h | increased | did not show any significant cytotoxic effects | time-dependent increases | 1.6 fold | 1.4 µM |
